From patent publication US20030114362A1, “Penta-or tetrapeptide binding to somatostatin receptors and the use of the same” (Novaspin Biotech GmbH, priority 2001, published 2003)
Starred links: 1 amine or outer side, 2 acyl side, 3 side chain; linkers in the order of their positions; H or OH if unused. Non-standard residues stand in square brackets, D forms with d. Residues, ends and D or L forms follow the SMILES beside them. ξ: configuration not given here. *: point of attachment. X3 = CC1(C)O[C@H]2O[C@H](C(=O)[*:2])[C@@H](N[*:1])[C@H]2O1; X1 = CC1(C)OC2[C@H](OC(C(O)C(=O)[*:2])[C@H]2N[*:1])O1; X2 = CC1(C)OC2[C@H](O[C@H](C(=O)[*:2])[C@H]2N[*:1])O1; Bip = N[C@@H](Cc1ccc(-c2ccccc2)cc1)C(=O)O; Trt = c1ccc(C(c2ccccc2)(c2ccccc2)*)cc1; Bta = N[C@@H](Cc1csc2ccccc12)C(=O)O; ξW = NC(Cc1c[nH]c2ccccc12)C(=O)O; Thr(3ξ) = CC(O)[C@H](N)C(=O)O; ξY = NC(Cc1ccc(O)cc1)C(=O)O; Nle = CCCC[C@H](N)C(=O)O; ξF = NC(Cc1ccccc1)C(=O)O; ξK = NCCCCC(N)C(=O)O; Bn = c1ccc(C*)cc1

Experiments:
[1] = test system: A431 (an epidermoid cancer); conditions: A431, MB and MTT assays
Protocol: (§3) Each compound was tested under 4 conditions: 6 h (to exclude necrosis) and 48 h to see inhibition of proliferation and apoptosis.

[2] = test system: Panc-1 (a well differentiated pancreatic adenocarcinoma); conditions: Panc-1, MB and MTT assays
Protocol: as §3

A431 and Panc-1 = conditions: number of cell deaths after 6 h of incubation
Protocol: The Compounds shown below were tested on two cell-lines, A431 (A. T. C. C. reference No. CRL-1555, c.f. American Type Culture Collection, http://phage.atcc.org/cgi-bin/searchengine/longview.cgi?view=ce,663682,CRL-1555&text=a-431, 2001, pp. http://phage.atcc.org/cgi-bin/searchengine/longview.cgi?view-ce,663682,CRL-661555&text=a-663431; http://phage.atcc.org/cgi-bin/searchengine/longview.cgi?view=ce,663682,CRL-661555&text=a-663431) (an epidermoid cancer) and Panc-1 (A.T.C.C. reference No. CRL-1469, c.f. American Type Culture Collection, http://phage.atcc.org/cgi-bin/searchengine/longview.egi?view=ce,609764,CRL-1469&text=panc-1) (a well differentiated pancreatic adenocarcinoma), both of human origin, using the MTT (Carmichael J et al. Cancer Res. 47(4): pp. 936-42, 1987.) and MB (Oliver M H, Harrison N K, Bishop J E, Cole P J, Laurent G J; J Cell Sci 1989 March;92 ( Pt 3):513-8) assays. [drawing 25]
Each compound was tested under […]: 6 h (to exclude necrosis) and 48 h to see inhibition of proliferation and apoptosis.

[3] = test system: sensitive cell line Klon 2; test: XTT/PMS cytotoxicity assay, drug sensitive hepatoma cells; assay type: cell-based, rat; conditions: Klon 2, XTT/PMS, 72 hrs incubation
Description: (§1) Rat hepatoma cells were cultivated in a F 12 medium (GibcoBRL), to which 5% of foetal calf serum had been added, in a atmosphere saturated with humidity (>95%) and having a CO2 content of 8% in air. The cell line named “Klon 2” was isolated by Venetianer et al. (Cytogentc.Cell.Genet 28:280-283, 1980). The cell line 2 (10×80)T1 is a sub-clone of Klon 2 having a moderate multi-drug resistance 8 (Pirity, Hever-Szabo and Venetianer, Cytotechnology 19:207-214, 1996). The degree of resistance of cell line 2 (10×80) was determined by a Niagara blue exclusion test, the cells being exposed to different concentrations of the following cytostatic agents for 72 hrs.
(§2) The XTT/PMS Assay (Scuderio et al., Cancer Res. 48:4827-4833, 1988; Roehm et al., J.Immun.Methods 142:257-265, 1991) was utilised to determine the cytotoxicity of the compounds. For this purpose, the viability of the sensitive cell line Klon 2 was tested in comparison with that of the multi-drug resistant cell line Klon 2 (10×80). An identical number of cells was applied to a 96 cell culture plate. […] The cell viability was determined by triple determination for each concentration by means of the XTT/PMS dye test (Scuderio et al., Cancer Res. 48:4827-4833, 1988; Roehm et al., J.Immun.Methods 142:257-265,1991). […]

[4] = test system: Substance P release from sensory nerve terminals; test: Release of Substance P in vitro from electrically stimulated rat tracheae (RIA); conditions: for Substance P release, stim. / inhibition of Substance P release / Substance P release, post stim. / Substance P release, pre stim.: 500 nmol; for Substance P release, stim.: electrical field stimulation 40 V, 0.1 ms, 10 Hz, 120 s; for Substance P release, stim. / Substance P release, post stim. / Substance P release, pre stim.: released amount of peptide per tissue weight; for inhibition of Substance P release: electrically evoked release; for Substance P release, post stim.: poststimulated fraction; for Substance P release, pre stim.: prestimulated fraction; for Substance P release evoked by electrical stimulation of sensory nerve terminals (in words): compared with TT-232
Protocol: Effect of TG, SGA, TR, and TT-232 on the Release of Substance P in vitro Methods:
After exsanguination the tracheae of 2-2 female Wistar rats were removed and perfused (1 ml min^−1) in an organ bath (1.8 ml) at 37° C. for 60 min with oxygenated (95% O2 and 5% CO2) Krebs solution of the following composition (in mM): NaCl 119, NaHCO3 25, KH2PO4 1.2, MgSO4 1.5, KCl 4.7, CaCl2 2.5, glucose 11. After stopping the flow the solution was changed 3 times for 8 min (prestimulated—stimulated—poststimulated). Electrical field stimulation (40 V, 0.1 ms, 10 Hz, 120 s) was performed to induce release of sensory neuropeptides from the tissue pieces in the presence or absence of SGTG, SGA, SGTH, or TT-232 (500-500 nM). The fractions were collected in ice-cold tubes and the wet weight of the tracheae were measured. Concentration of SP was determined by specific radioimmunoassay (RIA) methods developed in our laboratory (Németh, J., Oroszi, G., Thán, M., Helyes, Zs., Pintér, E., Farkas, B. and Szolcsányi, J.: Substance P radioimmunoassay for quantitative characterization of sensory neurotransmitter release. Neurobiology, 7, 437-444, 1999) and was expressed as the released amount of peptide per tissue weight.

[5] = test system: multi-drug resistant cell line Klon 2 (10×80); test: XTT/PMS cytotoxicity assay, multidrug resistant hepatoma cells; assay type: cell-based, rat; conditions: 72 hrs incubation
Description: as §1, §2

Molecule | IC50 [1] | IC50 [2] | Necrosis (A431 and Panc-1) | other results
C[C@@H](OC(c1ccccc1)(c1ccccc1)c1ccccc1)C1NC(=O)[C@H](CCCCN)NC(=O)[C@H](Cc2csc3ccccc23)NC(=O)[C@H](Cc2ccc(O)cc2)NC(=O)[C@H]2O[C@@H]3OC(C)(C)OC3[C@@H]2NC1=O (some centres unmarked) [SGnc 8] | 50 µM | 40 µM | some | –
c[-D-Trp-Lys-Thr(OTrt)-Z1-Tyr-] | – | – | – | IC50 [3]: 31 µM; Substance P release, stim. [4]: 5.14; inhibition of Substance P release [4]: 19.3%; Substance P release, post stim. [4]: 2.31; Substance P release, pre stim. [4]: 1.76; Substance P release evoked by electrical stimulation of sensory nerve terminals (in words) [4]: inhibited; IC50 [5]: 25 µM
CC1(C)OC2[C@H](OC3C(O)C(=O)NC(Cc4ccccc4)C(=O)N[C@H](Cc4c[nH]c5ccccc45)C(=O)NC(CCCCN)C(=O)N[C@@H](Cc4ccc(-c5ccccc5)cc4)C(=O)N[C@H]32)O1 (stereo partly drawn) [SGnc 20, cyclo[-D-Trp-Lys-Thr(OTrt)-Z2-Phe-]] (cyclo([Bip][X1][ξF][dW][ξK])) | ~60 µM | ~60 µM | some | –
CC1(C)OC2[C@H](O[C@@H]3C(=O)N[C@@H](Cc4ccccc4)C(=O)N[C@@H](Cc4c[nH]c5ccccc45)C(=O)N[C@@H](CCCCN)C(=O)N[C@@H]23)O1 (stereo partly drawn) [SGA, cyclo[-Phe-Trp-Lys-Z1-]] | – | – | – | Substance P release, stim. [4]: 4.81; inhibition of Substance P release [4]: 28.4%; Substance P release, post stim. [4]: 2.07; Substance P release, pre stim. [4]: 1.81; Substance P release evoked by electrical stimulation of sensory nerve terminals (in words) [4]: inhibited
CCCC[C@@H]1NC(=O)[C@@H](Cc2c[nH]c3ccccc23)NC(=O)[C@H](Cc2ccc(O)cc2)NC(=O)[C@H]2O[C@@H]3OC(C)(C)O[C@@H]3[C@@H]2NC(=O)[C@H]([C@@H](C)OC(c2ccccc2)(c2ccccc2)c2ccccc2)NC1=O [SGnc 7, cyclo[-D-Trp-Nle-Thr(OTrt)-Z1-Tyr-]] (cyclo([Nle]T(Trt)[X3]Y[dW])) | 10 µM | 10 µM | none | –
c[-Tyr-Trp-Lys-Thr-Z1-] | – | – | – | IC50 [3]: 75 µM; IC50 [5]: 47 µM
CC1(C)OC2[C@H](O[C@@H]3C(=O)NC(Cc4ccc(O)cc4)C(=O)N[C@@H](Cc4csc5ccccc45)C(=O)NC(CCCCN)C(=O)N[C@@H](Cc4ccc(OCc5ccccc5)cc4)C(=O)N[C@@H]23)O1 (some centres unmarked) [SGnc 51] (cyclo([Bta][ξK]Y(Bn)[X2][ξY])) | 35 µM | 35 µM | almost none | –
c[-D-Trp-Lys-1-Nal-Z1-Phe-] [SGnc 15] | ~110 µM | ~110 µM | some | –
CC(OC(c1ccccc1)(c1ccccc1)c1ccccc1)[C@@H]1NC(=O)C(CCCCN)NC(=O)[C@@H](Cc2c[nH]c3ccccc23)NC(=O)C(Cc2ccccc2)NC(=O)C(O)C2O[C@@H]3OC(C)(C)OC3[C@@H]2NC1=O (stereo partly drawn) [SGnc 18, c[-D-Trp-Lys-Thr(OTrt)-Z2-Phe-]] (cyclo([Thr(3ξ)](Trt)[X1][ξF][dW][ξK])) | ~50 µM | ~50 µM | some | –
CC(OCc1ccccc1)[C@@H]1NC(=O)C(CCCCN)NC(=O)C(Cc2c[nH]c3ccccc23)NC(=O)C(Cc2ccc(O)cc2)NC(=O)[C@H]2O[C@@H]3OC(C)(C)OC3[C@@H]2NC1=O (stereo partly drawn) [SGnc 38, cyclo[-D-Trp-Lys-Thr(OBzl)-Z1-Tyr-]] (cyclo([Thr(3ξ)](Bn)[X2][ξY][ξW][ξK])) | ~50 µM | ~50 µM | some | –
CC(OC(c1ccccc1)(c1ccccc1)c1ccccc1)[C@@H]1NC(=O)C(CCCCN)NC(=O)[C@@H](Cc2csc3ccccc23)NC(=O)C(Cc2ccc(O)cc2)NC(=O)[C@H]2O[C@@H]3OC(C)(C)OC3[C@@H]2NC1=O (some centres unmarked) [SGnc 50] | ~38 µM | ~38 µM | none | –
c[-D-Trp-Lys-Bpa-Z1-Phe-] [SGnc 14] | ~100 µM | ~100 µM | almost none | –
C[C@@H](OC(c1ccccc1)(c1ccccc1)c1ccccc1)C1NC(=O)[C@H](CCCCN)NC(=O)[C@H](Cc2ccc3ccccc3c2)NC(=O)[C@H](Cc2ccc(O)cc2)NC(=O)[C@H]2O[C@@H]3OC(C)(C)OC3[C@@H]2NC1=O (some centres unmarked) [SGnc 10] | 55 µM | 40 µM | some | –
